Patent US20260199368A1, “[…] SYSTEM CONTAINING REMIMAZOLAM” (LTS LOHMANN THERAPIE-SYSTEME AG, priority 2022, published 2026)

Experiments:
Goettingen minipigs = assay: In vivo studies using Goettingen minipigs: depth of sedation score; conditions: Animal No 1; 10 min post dosing; IV, 2 mL of 5 mg/mL (10 mg)
[1] = Mucosa permeation study (in vitro permeation test); type: in vitro ADME, pig
Procedure: Where not otherwise indicated, the in vitro permeation test is performed with dermatomed split-thickness pig mucosa (mucosa oesophagus) with a thickness of 400 μm and an intact barrier function, and with phosphate buffer pH 7.4 as receptor medium (37° C.). The amount of active permeated into the receptor medium is determined in regular intervals using an HPLC method with a UV photometric detector by taking a sample volume. The measured amount of active permeated relates to the amount permeated between the two last sampling points and not the total amount permeated so far. Within the meaning of this invention, artificial saliva refers to an aqueous solution of 0.520 g/L potassium thiocyanate, 1.470 g/L potassium chloride, 0.190 g/L sodium dihydrogenphosphate monohydrate and 2.650 g/L sodium hydrogenphosphate dihydrate, adjusted to a pH of 7.0+/−0.05 using 1 N NaOH.
For the investigation of the potential impact of pH on the permeation, a permeation study was performed to assess the permeation of remimazolam besylate (RMZ besylate) through the mucosa in dependence of pH value. In a second run, also the performance of remimazolam lyophilizate product (RMZ besylate) vs. oromucosal delivery system was assessed.
The samples used for permeation run 1 are defined in Table 19.
The permeated amount and the corresponding mucosa permeation rates of the oromucosal delivery system prepared according to Examples 2a were determined by in vitro experiments in accordance with the OECD Guideline (adopted Apr. 13, 2004) using pig mucosa with a thickness of 400 μm (mucosa oesophagus). The donor solutions were prepared by dissolving a sample film of Example 2a with a size of 5.75 cm^2 either in 5 ml artificial saliva or in 5 ml 0.9% NaCl. The remimazolam besylate was dissolved in artificial saliva so that the applied dose of RMZ was equivalent to an oromucosal delivery system containing 50 mg remimazolam in 500 μL medium, and the pH of the mixture was adjusted as indicated in Table 19. The pH was measured using a pH electrode. The permeation donor solutions were directly applied to the mucosa (diffusion area of 4.524 cm^2). The remimazolam permeated amount in the receptor medium (phosphate buffer solution pH 7.4) at a temperature of 37±1° C. was measured and the corresponding mucosa permeation rate calculated.
Due to the high variability in permeation run 1 (n=3), a second permeation experiment was performed with more replicates (n=6) to enlarge the data basis. The samples used are defined in table 15. Example 2a and Lyophilizate were dissolved in artificial saliva and 0.9% NaCl, respectively. Due to a pH adjustment in the lyophilizate/drug product, the resulting pH was slightly lower (pH 3.14 and pH 3.09) than with the Example 2a without pH adjustment (pH 3.67 and pH 3.50). A RMZ sample set to pH 3 served as a control.
The permeated amount and the corresponding mucosa permeation rates of the oromucosal delivery system prepared according to Examples 2a were determined as outlined above. The remimazolam permeated amount in the receptor medium (phosphate buffer solution pH 7.4) at a temperature of 37±1° C. was measured and the corresponding mucosa permeation rate calculated.

## COC(=O)CC[C@@H]1N=C(c2ccccn2)c2cc(Br)ccc2-n2c(C)cnc21.O=S(=O)(O)c1ccccc1 [RMZ, remimazolam besylate]
Goettingen minipigs
  Sedation/anaesthesia score: ¾
[1]; artificial saliva, pH 4.5 and pH 6
  permeation rate (assessment): poor
[1]; n = 3, in artificial saliva (pH 2), 2.5 min
  mucosa permeation rate: 1.98 μg/cm^2 min
[1]; n = 3, in artificial saliva (pH 2), 7.5 min
  mucosa permeation rate: 2.09 μg/cm^2 min
[1]; n = 3, in artificial saliva (pH 2), 12.5 min
  mucosa permeation rate: 1.83 μg/cm^2 min
[1]; n = 3, in artificial saliva (pH 2), 17.5 min
  mucosa permeation rate: 1.95 μg/cm^2 min
[1]; n = 3, in artificial saliva (pH 2), 22.5 min
  mucosa permeation rate: 1.92 μg/cm^2 min
[1]; n = 3, in artificial saliva (pH 2), 27.5 min
  mucosa permeation rate: 2.04 μg/cm^2 min
[1]; n = 3, in artificial saliva (pH 2), 45 min
  mucosa permeation rate: 1.36 μg/cm^2 min
[1]; n = 3, in artificial saliva (pH 3), 2.5 min
  mucosa permeation rate: 0.19 μg/cm^2 min
[1]; n = 3, in artificial saliva (pH 3), 7.5 min
  mucosa permeation rate: 0.75 μg/cm^2 min
[1]; n = 3, in artificial saliva (pH 3), 12.5 min
  mucosa permeation rate: 1.18 μg/cm^2 min
[1]; n = 3, in artificial saliva (pH 3), 17.5 min
  mucosa permeation rate: 1.43 μg/cm^2 min
[1]; n = 3, in artificial saliva (pH 3), 22.5 min
  mucosa permeation rate: 1.62 μg/cm^2 min
[1]; n = 3, in artificial saliva (pH 3), 27.5 min
  mucosa permeation rate: 1.80 μg/cm^2 min
[1]; n = 3, in artificial saliva (pH 3), 45 min
  mucosa permeation rate: 1.60 μg/cm^2 min
[1]; n = 3, in artificial saliva (pH 4.5), 2.5 min
  mucosa permeation rate: 0.09 μg/cm^2 min
[1]; n = 3, in artificial saliva (pH 4.5), 7.5 min
  mucosa permeation rate: 0.37 μg/cm^2 min
[1]; n = 3, in artificial saliva (pH 4.5), 12.5 min
  mucosa permeation rate: 0.22 μg/cm^2 min
[1]; n = 3, in artificial saliva (pH 4.5), 17.5 min
  mucosa permeation rate: 0.26 μg/cm^2 min
[1]; n = 3, in artificial saliva (pH 4.5), 22.5 min
  mucosa permeation rate: 0.34 μg/cm^2 min
[1]; n = 3, in artificial saliva (pH 4.5), 27.5 min
  mucosa permeation rate: 0.58 μg/cm^2 min
[1]; n = 3, in artificial saliva (pH 4.5), 45 min
  mucosa permeation rate: 0.26 μg/cm^2 min
[1]; n = 3, in artificial saliva (pH 6), 2.5 min
  mucosa permeation rate: 0.11 μg/cm^2 min
[1]; n = 3, in artificial saliva (pH 6), 7.5 min
  mucosa permeation rate: 0.18 μg/cm^2 min
[1]; n = 3, in artificial saliva (pH 6), 12.5 min
  mucosa permeation rate: 0.18 μg/cm^2 min
[1]; n = 3, in artificial saliva (pH 6), 17.5 min
  mucosa permeation rate: 0.31 μg/cm^2 min
[1]; n = 3, in artificial saliva (pH 6), 22.5 min
  mucosa permeation rate: 0.37 μg/cm^2 min
[1]; n = 3, in artificial saliva (pH 6), 27.5 min
  mucosa permeation rate: 0.58 μg/cm^2 min
[1]; n = 3, in artificial saliva (pH 6), 45 min
  mucosa permeation rate: 0.47 μg/cm^2 min
[1]; n = 6, in artificial saliva (pH 3), 2.5 min
  mucosa permeation rate: 0.01 μg/cm^2 min
[1]; n = 6, in artificial saliva (pH 3), 7.5 min
  mucosa permeation rate: 0.21 μg/cm^2 min
[1]; n = 6, in artificial saliva (pH 3), 12.5 min
  mucosa permeation rate: 0.65 μg/cm^2 min
[1]; n = 6, in artificial saliva (pH 3), 17.5 min
  mucosa permeation rate: 1.08 μg/cm^2 min
[1]; n = 6, in artificial saliva (pH 3), 22.5 min
  mucosa permeation rate: 1.38 μg/cm^2 min
[1]; n = 6, in artificial saliva (pH 3), 27.5 min
  mucosa permeation rate: 1.56 μg/cm^2 min
[1]; n = 6, in artificial saliva (pH 3), 45 min
  mucosa permeation rate: 1.23 μg/cm^2 min
[1]; run 2, n = 6, 0.9% NaCl and artificial saliva
  mucosa permeation, comparison between samples: no significant difference
